In ChEMBL document CHEMBL3352668, “Synthesis and antibacterial evaluation of new, unsymmetrical triaryl bisamidine compounds” (Bioorg Med Chem Lett, 2014):
≈ marks a conversion by molar mass, not a printed value.

How the values were obtained:
Klebsiella pneumoniae = assay: Antimicrobial activity against Klebsiella pneumoniae 13882 by CLSI method; assay type: functional; conditions: Klebsiella pneumoniae, 13882; read-out: MIC
Bacillus anthracis = assay: Antimicrobial activity against Bacillus anthracis Sterne by CLSI method; assay type: functional
Staphylococcus aureus = assay: Antimicrobial activity against methicillin-resistant Staphylococcus aureus 1094 by CLSI method; assay type: functional; conditions: Staphylococcus aureus, 1094; read-out: MIC
Enterococcus faecalis = assay: Antimicrobial activity against vancomycin-resistant Enterococcus faecalis ATCC 51575 by CLSI method; assay type: functional; conditions: Enterococcus faecalis, ATCC 51575; read-out: MIC
Escherichia coli [1] = assay: Antimicrobial activity against TolC+ Escherichia coli 700 by CLSI method; assay type: functional; conditions: Escherichia coli, 700; read-out: MIC
Bacillus subtilis = assay: Antimicrobial activity against Bacillus subtilis BD54 by CLSI method; assay type: functional; conditions: Bacillus subtilis, BD54; read-out: MIC
Pseudomonas aeruginosa = assay: Antimicrobial activity against Pseudomonas aeruginosa PAO1 by CLSI method; assay type: functional; conditions: Pseudomonas aeruginosa, PAO1; read-out: MIC
[2] = Cytotoxicity against human HeLa cells by MTS assay; assay type: cell-based; conditions: HeLa cells
Escherichia coli [3] = assay: Antimicrobial activity against TolC-deficient Escherichia coli by CLSI method; assay type: functional
[4] = Bacillus anthracis, Sterne, read-out: MIC
[5] = Escherichia coli, read-out: MIC

Row | SMILES | MIC (Klebsiella pneumoniae) [µg/mL] | MIC (Bacillus anthracis; [4]) [µg/mL] | MIC (Staphylococcus aureus) [µg/mL] | MIC (Enterococcus faecalis) [µg/mL] | MIC (Escherichia coli [1]) [µg/mL] | MIC (Bacillus subtilis) [µg/mL] | MIC (Pseudomonas aeruginosa) [µg/mL] | CC50 [2] [µg/mL] | MIC (Escherichia coli [3]; [5]) [µg/mL] | MIC (Bacillus anthracis) [µg/mL] | MIC (Escherichia coli [3]) [µg/mL]
1 | Fc1cc(-c2cc3ccc(C4=NCCCN4)cc3[nH]2)ccc1-c1cc2ccc(C3=NCCCN3)cc2o1 | 0.63 (≈ 1.28 µM) | 0.08 (≈ 0.163 µM) | 0.16 (≈ 0.325 µM) | 0.16 (≈ 0.325 µM) | 0.63 (≈ 1.28 µM) | 0.08 (≈ 0.163 µM) | 2.5 (≈ 5.09 µM) | 14.3 (≈ 29.1 µM) | 0.31 (≈ 0.631 µM) |  | 
2 | NCCCNc1cc(-c2cc3ccc(C4=NCCCN4)cc3[nH]2)ccc1-c1cc2ccc(C3=NCCCN3)cc2o1 | 1.25 (≈ 2.29 µM) | 0.63 (≈ 1.15 µM) | 0.63 (≈ 1.15 µM) | 1.25 (≈ 2.29 µM) | 2.5 (≈ 4.58 µM) | 0.24 (≈ 0.44 µM) | 2.5 (≈ 4.58 µM) | 4.6 (≈ 8.43 µM) | 0.63 (≈ 1.15 µM) |  | 
3 | c1cc2cc(-c3ccc(-c4cc5ccc(C6=NCCN6)cc5o4)s3)[nH]c2cc1C1=NCCN1 | 60 (≈ 133 µM) | 1.09 (≈ 2.41 µM) | 0.94 (≈ 2.08 µM) | 1.56 (≈ 3.45 µM) | 2.8 (≈ 6.2 µM) | 0.16 (≈ 0.354 µM) | 66.7 (≈ 148 µM) | 182 (≈ 403 µM) | 0.27 (≈ 0.598 µM) |  | 
4 | CC1CNC(c2ccc3cc(-c4ccc(-c5cc6ccc(C7=NC(C)CN7)cc6o5)s4)[nH]c3c2)=N1 (centres undefined) | 20 (≈ 41.7 µM) | 0.52 (≈ 1.08 µM) | 1.04 (≈ 2.17 µM) | 0.63 (≈ 1.31 µM) | 1.25 (≈ 2.61 µM) | 0.31 (≈ 0.646 µM) | 26.7 (≈ 55.7 µM) | 14.5 (≈ 30.2 µM) | 0.63 (≈ 1.31 µM) |  | 
5 | c1cc2cc(-c3ccc(-c4cc5ccc(C6=NCCCN6)cc5o4)s3)[nH]c2cc1C1=NCCCN1 | 2.5 (≈ 5.21 µM) | 0.16 (≈ 0.334 µM) | 0.31 (≈ 0.646 µM) | 0.31 (≈ 0.646 µM) | 0.63 (≈ 1.31 µM) | 0.08 (≈ 0.167 µM) | 10 (≈ 20.9 µM) | 8.7 (≈ 18.1 µM) | 0.31 (≈ 0.646 µM) |  | 
6 | OC1CN=C(c2ccc3cc(-c4ccc(-c5cc6ccc(C7=NCC(O)CN7)cc6o5)s4)[nH]c3c2)NC1 (centres undefined) | 15 (≈ 29.3 µM) | 1.25 (≈ 2.44 µM) | 1.88 (≈ 3.67 µM) | 2.5 (≈ 4.89 µM) | 5 (≈ 9.77 µM) | 0.43 (≈ 0.84 µM) | 40 (≈ 78.2 µM) | 12.7 (≈ 24.8 µM) | 0.47 (≈ 0.919 µM) |  | 
7 | FC1CN=C(c2ccc3cc(-c4ccc(-c5cc6ccc(C7=NCC(F)CN7)cc6o5)s4)[nH]c3c2)NC1 (centres undefined) | 2.5 (≈ 4.85 µM) | 0.31 (≈ 0.601 µM) | 0.63 (≈ 1.22 µM) | 0.63 (≈ 1.22 µM) | 1.25 (≈ 2.42 µM) | 0.16 (≈ 0.31 µM) | 53.3 (≈ 103 µM) | 22.5 (≈ 43.6 µM) | 0.31 (≈ 0.601 µM) |  | 
8 | CC1CN=C(c2ccc3cc(-c4ccc(-c5cc6ccc(C7=NCC(C)CN7)cc6o5)cn4)[nH]c3c2)NC1 (centres undefined) | 2.5 (≈ 4.97 µM) | 0.63 (≈ 1.25 µM) | 0.31 (≈ 0.617 µM) | 0.63 (≈ 1.25 µM) | 1.88 (≈ 3.74 µM) | 0.08 (≈ 0.159 µM) | 5 (≈ 9.95 µM) | 2.2 (≈ 4.38 µM) | 0.27 (≈ 0.537 µM) |  | 
9 | OC1CN=C(c2ccc3cc(-c4ccc(-c5cc6ccc(C7=NCC(O)CN7)cc6o5)cn4)[nH]c3c2)NC1 (centres undefined) | 8.8 (≈ 17.4 µM) | 1.09 (≈ 2.15 µM) | 2.5 (≈ 4.94 µM) | 5 (≈ 9.87 µM) | 80 (≈ 158 µM) | 3.75 (≈ 7.4 µM) | 25 (≈ 49.4 µM) | 16.7 (≈ 33 µM) | 0.63 (≈ 1.24 µM) |  | 
10 | FC1CN=C(c2ccc3cc(-c4ccc(-c5cc6ccc(C7=NCC(F)CN7)cc6o5)cn4)[nH]c3c2)NC1 (centres undefined) | 2.5 (≈ 4.9 µM) | 0.63 (≈ 1.23 µM) | 0.83 (≈ 1.63 µM) | 0.63 (≈ 1.23 µM) | 8.3 (≈ 16.3 µM) | 0.16 (≈ 0.313 µM) | 8.3 (≈ 16.3 µM) | 19.6 (≈ 38.4 µM) | 0.31 (≈ 0.607 µM) |  | 
11 | Cc1c(-c2ccc(-c3cc4ccc(C5=NCCCN5)cc4o3)cc2)[nH]c2cc(C3=NCCCN3)ccc12 | 0.31 (≈ 0.636 µM) | 0.08 (≈ 0.164 µM) | 0.16 (≈ 0.328 µM) | 0.16 (≈ 0.328 µM) | 0.31 (≈ 0.636 µM) | 0.08 (≈ 0.164 µM) | 1.25 (≈ 2.56 µM) | 1.5 (≈ 3.08 µM) | 0.31 (≈ 0.636 µM) |  | 
12 | Cc1c(-c2ccc(-c3cc4ccc(C5=NCCCN5)cc4o3)cc2)[nH]c2cccc(C#N)c12 | 20 (≈ 46.5 µM) | 2.5 (≈ 5.81 µM) | 5 (≈ 11.6 µM) | 5 (≈ 11.6 µM) | 20 (≈ 46.5 µM) | 2.5 (≈ 5.81 µM) | 40 (≈ 92.9 µM) |  | 10 (≈ 23.2 µM) |  | 
13 | CC1CNC(c2ccc3cc(-c4ccc(-c5ccc(N(C)C)cc5)cc4)[nH]c3c2)=N1 (centres undefined) | > 80 | 2.1 (≈ 5.32 µM) | 1.04 (≈ 2.64 µM) | 3.3 (≈ 8.36 µM) | > 80 | 0.63 (≈ 1.6 µM) | > 80 | ≤ 0.63 | > 80 |  | 
14 | CN(C)c1ccc(-c2ccc(-c3cc4ccc(C5=NCCCN5)cc4[nH]3)cc2)cc1 | > 80 | 0.47 (≈ 1.19 µM) | 1.09 (≈ 2.76 µM) | 3.1 (≈ 7.86 µM) | > 80 | 0.63 (≈ 1.6 µM) | > 80 | ≤ 0.63 | > 80 |  | 
15 | CC1CNC(c2ccc3cc(-c4ccc(-c5cc6ccc(C7=NC(C)CN7)cc6o5)cc4)[nH]c3c2)=N1 (stereo in doubt) | 2.5 (≈ 5.28 µM) |  | 0.31 (≈ 0.655 µM) | 0.39 (≈ 0.824 µM) | 0.63 (≈ 1.33 µM) | 0.2 (≈ 0.422 µM) | 60 (≈ 127 µM) | 5.7 (≈ 12 µM) |  | 0.31 (≈ 0.655 µM) | 0.63 (≈ 1.33 µM)
